{"source": "PubChem BioAssay AID1259409", "about": "(Chemical Carcinogenesis Research Information System (CCRIS), 2018)", "origin": "cited, not measured here", "test_system": "rodent chemically induced tumor inhibition, incidence and multiplicity", "assay": "CCRIS tumor inhibitor studies", "conditions": "Species: MOUSE"}
{"smiles": "S=C=NCCc1ccccc1", "values": [{"measurement": "tumour outcome (control, treated, inhibition, significance)", "setting": "Carcinogen: 4(METHYLNITROSAMINO)1-(3-PYRIDYL)-1-BUTANONE, 64091-91-4, Dose [Inhibitor]: 0, 5 UMOL IN 0.1 ML CORN OIL WITH 10% DMSO 2 HR PRIOR TO CARCINOGEN DOSE (STUDY DURATION: 16 WK), Route [Inhibitor]: GAVAGE, Strain/Sex: STRAIN-A/FEMALE, Target Tissue: Type of Lesion: LUNG: ADENOMA, Dose [Carcinogen]: 10 UMOL IN 0.1 ML SALINE ONCE, Promoter: NONE USED", "result": "100%, 100%, 0%, not significant"}, {"measurement": "tumour outcome (control, treated, inhibition, significance)", "setting": "Carcinogen: 4-(METHYLNITROSAMINO)-1-(3-PYRIDYL)-1-BUTANONE (NNK) [64091-91-4], Dose [Inhibitor]: 1.5 UM/G DIET, BEGINNING 13 WKS AFTER CARCINOGEN/PROMOTER TREATMENT (STUDY DURATION: 42 WK), Route [Inhibitor]: DIET, Strain/Sex: A/J/FEMALE, Target Tissue: Type of Lesion: LUNG: ADENOCARCINOMA, Dose [Carcinogen]: 3 µM WEEKLY FOR 8 DOSES, Promoter: BENZO[A]PYRENE [50-32-8]", "result": "42%, 35%, 17%, not significant"}, {"measurement": "tumour outcome (control, treated, inhibition, significance)", "setting": "Carcinogen: 4-(METHYLNITROSAMINO)-1-(3-PYRIDYL)-1-BUTANONE (NNK) [64091-91-4], Dose [Inhibitor]: 1.5 UM/G DIET, BEGINNING 13 WKS AFTER CARCINOGEN/PROMOTER TREATMENT (STUDY DURATION: 42 WK), Route [Inhibitor]: DIET, Strain/Sex: A/J/FEMALE, Target Tissue: Type of Lesion: LUNG: ADENOMA, Dose [Carcinogen]: 3 µM WEEKLY FOR 8 DOSES, Promoter: BENZO[A]PYRENE [50-32-8]", "result": "100%, 95%, 5%, not significant"}, {"measurement": "tumour outcome (control, treated, inhibition, significance)", "setting": "Carcinogen: 4-(METHYLNITROSAMINO)-1-(3-PYRIDYL)-1-BUTANONE (NNK) [64091-91-4], Dose [Inhibitor]: 3 UM/G DIET, BEGINNING 13 WKS AFTER CARCINOGEN/PROMOTER TREATMENT (STUDY DURATION: 42 WK), Route [Inhibitor]: DIET, Strain/Sex: A/J/FEMALE, Target Tissue: Type of Lesion: LUNG: ADENOCARCINOMA, Dose [Carcinogen]: 3 µM WEEKLY FOR 8 DOSES, Promoter: BENZO[A]PYRENE [50-32-8]", "result": "42%, 19%, 55%, p<0.05"}, {"measurement": "tumour outcome (control, treated, inhibition, significance)", "setting": "Carcinogen: 4-(METHYLNITROSAMINO)-1-(3-PYRIDYL)-1-BUTANONE [64091-91-4] (NNK), Dose [Inhibitor]: 3 UM/G DIET, BEGINNING 13 WKS AFTER CARCINOGEN/PROMOTER TREATMENT (STUDY DURATION: 42 WK), Route [Inhibitor]: DIET, Strain/Sex: A/J/FEMALE, Target Tissue: Type of Lesion: LUNG: ADENOMA, Dose [Carcinogen]: 3 µM WEEKLY FOR 8 DOSES, Promoter: BENZO[A]PYRENE [50-32-8]", "result": "100%, 100%, 0%, not significant"}, {"measurement": "tumour outcome (control, treated, inhibition, significance)", "setting": "Carcinogen: 4-(METHYLNITROSAMINO)-1-(3-PYRIDYL)-1-BUTANONE [64091-91-4], BENZO[A]PYRENE [50-32-8], Dose [Inhibitor]: 0.3 UMOL/G IN DIET FOR 10 WK BEGINNING 1 WK PRIOR TO FIRST CARCINOGEN DOSE (STUDY DURATION: 28 WK), Route [Inhibitor]: ORAL, Strain/Sex: A/J/FEMALE, Target Tissue: Type of Lesion: LUNG: TUMOR, Dose [Carcinogen]: 3 UMOL BAP + 3 UMOL NNK IN 0.1 ML COTTONSEED OIL 1X/WK FOR 8 WK (STUDY DURATION: 28 WK), Promoter: NONE", "result": "100%, 100%, 0%, not calculated"}, {"measurement": "tumour outcome (control, treated, inhibition, significance)", "setting": "Carcinogen: 4-(METHYLNITROSAMINO)-1-(3-PYRIDYL)-1-BUTANONE [64091-91-4], BENZO[A]PYRENE [50-32-8], Dose [Inhibitor]: 1 UMOL/G IN DIET FOR 10 WK BEGINNING 1 WK PRIOR TO FIRST CARCINOGEN DOSE (STUDY DURATION: 28 WK), Route [Inhibitor]: ORAL, Strain/Sex: A/J/FEMALE, Target Tissue: Type of Lesion: LUNG: TUMOR, Dose [Carcinogen]: 3 UMOL BAP + 3 UMOL NNK IN 0.1 ML COTTONSEED OIL 1X/WK FOR 8 WK (STUDY DURATION: 28 WK), Promoter: NONE", "result": "100%, 100%, 0%, not calculated"}, {"measurement": "tumour outcome (control, treated, inhibition, significance)", "setting": "Carcinogen: 4-(METHYLNITROSAMINO)-1-(3-PYRIDYL)-1-BUTANONE [64091-91-4], BENZO[A]PYRENE [50-32-8], Dose [Inhibitor]: 3 UMOL/G IN DIET FOR 10 WK BEGINNING 1 WK PRIOR TO FIRST CARCINOGEN DOSE (STUDY DURATION: 28 WK), Route [Inhibitor]: ORAL, Strain/Sex: A/J/FEMALE, Target Tissue: Type of Lesion: LUNG: TUMOR, Dose [Carcinogen]: 3 UMOL BAP + 3 UMOL NNK IN 0.1 ML COTTONSEED OIL 1X/WK FOR 8 WK (STUDY DURATION: 28 WK), Promoter: NONE", "result": "100%, 100%, 0%, not calculated"}, {"measurement": "tumour outcome (control, treated, inhibition, significance)", "setting": "Carcinogen: 4-(METHYLNITROSAMINO)-1-(3-PYRIDYL)-1-BUTANONE [64091-91-4], BENZO[A]PYRENE [50-32-8], Dose [Inhibitor]: 6 UMOL IN 0.1 ML COTTONSEED OIL 1X/WK FOR 8 WK 2 PRIOR TO EACH CARCINOGEN DOSE (STUDY DURATION: 16 WK), Route [Inhibitor]: GAVAGE, Strain/Sex: A/J/FEMALE, Target Tissue: Type of Lesion: LUNG: TUMOR, Dose [Carcinogen]: 3 UMOL BAP + 3 UMOL NNK IN 0.1 ML COTTONSEED OIL 1X/WK FOR 8 WK (STUDY DURATION: 16 WK), Promoter: NONE", "result": "100%, 100%, 0%, not calculated"}, {"measurement": "tumour outcome (control, treated, inhibition, significance)", "setting": "Carcinogen: 4-(METHYLNITROSAMINO)-1-(3-PYRIDYL)-1-BUTANONE [64091-91-4], Dose [Inhibitor]: 0.3 UMOL/G IN DIET FOR 10 WK BEGINNING 1 WK PRIOR TO FIRST CARCINOGEN DOSE (STUDY DURATION: 28 WK), Route [Inhibitor]: ORAL, Strain/Sex: A/J/FEMALE, Target Tissue: Type of Lesion: LUNG: TUMOR, Dose [Carcinogen]: 3 UMOL IN 0.1 ML COTTONSEED OIL 1X/WK FOR 8 WK (STUDY DURATION: 28 WK), Promoter: NONE", "result": "100%, 100%, 0%, not calculated"}, {"measurement": "tumour outcome (control, treated, inhibition, significance)", "setting": "Carcinogen: 4-(METHYLNITROSAMINO)-1-(3-PYRIDYL)-1-BUTANONE [64091-91-4], Dose [Inhibitor]: 1 UMOL/G IN DIET FOR 10 WK BEGINNING 1 WK PRIOR TO FIRST CARCINOGEN DOSE (STUDY DURATION: 28 WK), Route [Inhibitor]: ORAL, Strain/Sex: A/J/FEMALE, Target Tissue: Type of Lesion: LUNG: TUMOR, Dose [Carcinogen]: 3 UMOL IN 0.1 ML COTTONSEED OIL 1X/WK FOR 8 WK (STUDY DURATION: 28 WK), Promoter: NONE", "result": "100%, 100%, 0%, not calculated"}, {"measurement": "tumour outcome (control, treated, inhibition, significance)", "setting": "Carcinogen: 4-(METHYLNITROSAMINO)-1-(3-PYRIDYL)-1-BUTANONE [64091-91-4], Dose [Inhibitor]: 3 UMOL/G IN DIET FOR 10 WK BEGINNING 1 WK PRIOR TO FIRST CARCINOGEN DOSE (STUDY DURATION: 28 WK), Route [Inhibitor]: ORAL, Strain/Sex: A/J/FEMALE, Target Tissue: Type of Lesion: LUNG: TUMOR, Dose [Carcinogen]: 3 UMOL IN 0.1 ML COTTONSEED OIL 1X/WK FOR 8 WK (STUDY DURATION: 28 WK), Promoter: NONE", "result": "100%, 100%, 0%, not calculated"}, {"measurement": "tumour outcome (control, treated, inhibition, significance)", "setting": "Carcinogen: 4-(METHYLNITROSAMINO)-1-(3-PYRIDYL)-1-BUTANONE, 64091-91-4, Dose [Inhibitor]: 0, 0.2 UMOL 1/D FOR 4 D ADMINISTERED PRIOR TO CARCINOGEN TREATMENT (STUDY DURATION: 116 D), Route [Inhibitor]: GAVAGE, Strain/Sex: STRAIN A, Target Tissue: Type of Lesion: LUNG ADENOMA, Dose [Carcinogen]: 10 UMOL ONCE 2 HR AFTER FINAL DOSE OF INHIBITOR, Promoter: NONE USED", "result": "100%, 100%, 0%, not significant"}, {"measurement": "tumour outcome (control, treated, inhibition, significance)", "setting": "Carcinogen: 4-(METHYLNITROSAMINO)-1-(3-PYRIDYL)-1-BUTANONE, 64091-91-4, Dose [Inhibitor]: 0, 0.008% IN DIET FOR 17 WK BEGINNING 1 WK PRIOR TO CARCINOGEN DOSE (STUDY DURATION: 17 WK), Route [Inhibitor]: ORAL, Strain/Sex: STRAIN-A/FEMALE, Target Tissue: Type of Lesion: LUNG: ADENOMA, Dose [Carcinogen]: 10 UMOL IN 0.1 ML SALINE ONCE, Promoter: NONE USED", "result": "100%, 96%, 4%, not significant"}, {"measurement": "tumour outcome (control, treated, inhibition, significance)", "setting": "Carcinogen: 4-(METHYLNITROSAMINO)-1-(3-PYRIDYL)-1-BUTANONE, 64091-91-4, Dose [Inhibitor]: 0, 1 UMOL 1/D FOR 4 D ADMINISTERED PRIOR TO CARCINOGEN TREATMENT (STUDY DURATION: 116 D), Route [Inhibitor]: GAVAGE, Strain/Sex: STRAIN A, Target Tissue: Type of Lesion: LUNG: ADENOMA, Dose [Carcinogen]: 10 UMOL ONCE, Promoter: NONE USED", "result": "100%, 100%, 0%, not significant"}]}
